The Kinase Knowledgebase extract (Sharma et al. 2016)

Assays:
PIK3CG (human) [1] = biological target: PIK3CG (human) (UniProt P48736); assay: Cell-Based Assay; details: u937
PIK3CG (human) [2] = biological target: PIK3CG (human) (UniProt P48736); assay: Enzyme Assay
PIK3CD (Human) = PIK3CD (Human) (UniProt O00329); assay: Enzyme Assay
PIK3CA (human) = PIK3CA (human) (UniProt P42336); assay: Enzyme Assay
PIK3CB (Human) = PIK3CB (Human) (UniProt P42338); assay: Enzyme Assay
Chain of PIK3CB (Human) (P42338 whole entry, looked up): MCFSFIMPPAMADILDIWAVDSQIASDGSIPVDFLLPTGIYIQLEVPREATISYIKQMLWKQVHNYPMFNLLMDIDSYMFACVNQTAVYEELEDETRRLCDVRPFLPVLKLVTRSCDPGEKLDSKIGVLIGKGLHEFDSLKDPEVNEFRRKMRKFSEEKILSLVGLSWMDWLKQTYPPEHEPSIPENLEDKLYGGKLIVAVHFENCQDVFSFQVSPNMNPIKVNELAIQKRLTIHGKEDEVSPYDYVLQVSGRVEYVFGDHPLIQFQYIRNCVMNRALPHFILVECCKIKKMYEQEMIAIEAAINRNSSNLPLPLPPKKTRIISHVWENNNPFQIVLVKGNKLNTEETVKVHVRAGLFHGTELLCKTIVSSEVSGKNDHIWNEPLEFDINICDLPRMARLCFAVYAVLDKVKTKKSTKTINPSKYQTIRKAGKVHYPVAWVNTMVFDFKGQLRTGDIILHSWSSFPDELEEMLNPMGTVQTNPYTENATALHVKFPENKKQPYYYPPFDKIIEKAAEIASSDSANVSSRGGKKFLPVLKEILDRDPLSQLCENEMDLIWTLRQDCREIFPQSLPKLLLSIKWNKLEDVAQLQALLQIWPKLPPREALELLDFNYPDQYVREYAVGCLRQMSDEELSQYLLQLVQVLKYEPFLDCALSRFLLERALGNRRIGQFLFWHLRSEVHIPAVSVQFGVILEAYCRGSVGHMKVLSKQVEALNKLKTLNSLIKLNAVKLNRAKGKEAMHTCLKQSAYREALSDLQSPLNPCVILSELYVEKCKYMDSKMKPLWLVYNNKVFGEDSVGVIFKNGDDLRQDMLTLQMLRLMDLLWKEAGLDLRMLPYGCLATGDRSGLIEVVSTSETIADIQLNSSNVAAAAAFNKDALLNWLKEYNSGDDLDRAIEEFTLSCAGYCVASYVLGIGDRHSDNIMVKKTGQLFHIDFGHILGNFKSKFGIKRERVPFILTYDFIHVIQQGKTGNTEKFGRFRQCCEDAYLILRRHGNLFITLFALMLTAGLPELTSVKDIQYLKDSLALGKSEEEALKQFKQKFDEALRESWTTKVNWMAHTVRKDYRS

Chain of PIK3CD (Human) (O00329 whole entry, looked up): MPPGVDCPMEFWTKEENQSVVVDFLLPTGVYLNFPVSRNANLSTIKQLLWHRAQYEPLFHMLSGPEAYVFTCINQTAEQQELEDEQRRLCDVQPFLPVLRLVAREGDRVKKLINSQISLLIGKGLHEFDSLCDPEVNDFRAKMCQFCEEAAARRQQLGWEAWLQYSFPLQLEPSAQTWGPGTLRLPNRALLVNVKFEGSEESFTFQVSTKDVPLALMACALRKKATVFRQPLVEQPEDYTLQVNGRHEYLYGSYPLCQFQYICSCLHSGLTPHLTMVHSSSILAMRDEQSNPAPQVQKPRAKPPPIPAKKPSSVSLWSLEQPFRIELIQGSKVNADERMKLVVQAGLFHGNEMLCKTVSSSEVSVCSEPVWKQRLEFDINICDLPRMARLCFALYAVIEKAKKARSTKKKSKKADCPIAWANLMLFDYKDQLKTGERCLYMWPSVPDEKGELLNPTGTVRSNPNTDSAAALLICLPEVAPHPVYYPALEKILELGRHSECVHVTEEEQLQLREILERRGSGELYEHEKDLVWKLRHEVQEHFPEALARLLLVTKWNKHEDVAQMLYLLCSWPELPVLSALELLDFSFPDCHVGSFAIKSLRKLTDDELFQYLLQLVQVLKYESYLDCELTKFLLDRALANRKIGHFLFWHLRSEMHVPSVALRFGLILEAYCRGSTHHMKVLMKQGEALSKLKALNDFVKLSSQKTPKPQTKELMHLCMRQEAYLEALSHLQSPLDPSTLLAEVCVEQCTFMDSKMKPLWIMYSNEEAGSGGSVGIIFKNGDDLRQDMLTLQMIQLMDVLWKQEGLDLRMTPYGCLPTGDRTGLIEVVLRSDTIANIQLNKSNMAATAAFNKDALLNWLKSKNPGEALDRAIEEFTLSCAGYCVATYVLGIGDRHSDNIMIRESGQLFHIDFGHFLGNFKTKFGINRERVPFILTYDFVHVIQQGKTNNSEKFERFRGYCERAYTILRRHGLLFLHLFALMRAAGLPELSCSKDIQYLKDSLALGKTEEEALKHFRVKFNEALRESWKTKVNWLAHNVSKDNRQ
Chain of PIK3CG (human) (P48736 whole entry, looked up): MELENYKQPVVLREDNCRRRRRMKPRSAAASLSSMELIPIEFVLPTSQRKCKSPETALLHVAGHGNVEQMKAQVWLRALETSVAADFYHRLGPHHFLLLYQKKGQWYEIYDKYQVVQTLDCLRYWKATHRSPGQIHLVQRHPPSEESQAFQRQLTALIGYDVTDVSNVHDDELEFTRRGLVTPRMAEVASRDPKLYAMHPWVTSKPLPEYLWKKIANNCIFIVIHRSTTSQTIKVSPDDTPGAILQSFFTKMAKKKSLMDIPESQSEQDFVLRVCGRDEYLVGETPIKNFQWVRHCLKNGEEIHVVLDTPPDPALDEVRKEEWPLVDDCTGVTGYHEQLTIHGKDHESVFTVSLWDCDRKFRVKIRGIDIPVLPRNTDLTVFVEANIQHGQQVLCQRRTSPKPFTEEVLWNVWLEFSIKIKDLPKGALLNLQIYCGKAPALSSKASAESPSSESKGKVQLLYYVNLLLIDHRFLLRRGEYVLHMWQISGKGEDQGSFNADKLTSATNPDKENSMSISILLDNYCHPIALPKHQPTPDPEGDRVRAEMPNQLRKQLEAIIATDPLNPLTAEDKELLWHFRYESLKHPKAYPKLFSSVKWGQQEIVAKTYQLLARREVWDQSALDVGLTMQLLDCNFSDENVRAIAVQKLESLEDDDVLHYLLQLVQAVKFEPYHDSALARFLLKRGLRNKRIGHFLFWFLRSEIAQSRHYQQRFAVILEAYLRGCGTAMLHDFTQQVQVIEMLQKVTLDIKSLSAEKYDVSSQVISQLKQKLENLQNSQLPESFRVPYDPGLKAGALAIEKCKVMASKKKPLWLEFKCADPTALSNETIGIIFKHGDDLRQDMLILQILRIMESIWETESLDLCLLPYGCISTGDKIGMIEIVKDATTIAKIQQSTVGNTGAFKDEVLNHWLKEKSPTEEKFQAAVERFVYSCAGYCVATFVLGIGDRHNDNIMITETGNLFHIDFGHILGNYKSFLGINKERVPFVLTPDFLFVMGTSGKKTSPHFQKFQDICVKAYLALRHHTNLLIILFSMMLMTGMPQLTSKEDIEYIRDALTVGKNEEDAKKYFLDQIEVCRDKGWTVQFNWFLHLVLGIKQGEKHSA
Chain of PIK3CA (human) (P42336 whole entry, looked up): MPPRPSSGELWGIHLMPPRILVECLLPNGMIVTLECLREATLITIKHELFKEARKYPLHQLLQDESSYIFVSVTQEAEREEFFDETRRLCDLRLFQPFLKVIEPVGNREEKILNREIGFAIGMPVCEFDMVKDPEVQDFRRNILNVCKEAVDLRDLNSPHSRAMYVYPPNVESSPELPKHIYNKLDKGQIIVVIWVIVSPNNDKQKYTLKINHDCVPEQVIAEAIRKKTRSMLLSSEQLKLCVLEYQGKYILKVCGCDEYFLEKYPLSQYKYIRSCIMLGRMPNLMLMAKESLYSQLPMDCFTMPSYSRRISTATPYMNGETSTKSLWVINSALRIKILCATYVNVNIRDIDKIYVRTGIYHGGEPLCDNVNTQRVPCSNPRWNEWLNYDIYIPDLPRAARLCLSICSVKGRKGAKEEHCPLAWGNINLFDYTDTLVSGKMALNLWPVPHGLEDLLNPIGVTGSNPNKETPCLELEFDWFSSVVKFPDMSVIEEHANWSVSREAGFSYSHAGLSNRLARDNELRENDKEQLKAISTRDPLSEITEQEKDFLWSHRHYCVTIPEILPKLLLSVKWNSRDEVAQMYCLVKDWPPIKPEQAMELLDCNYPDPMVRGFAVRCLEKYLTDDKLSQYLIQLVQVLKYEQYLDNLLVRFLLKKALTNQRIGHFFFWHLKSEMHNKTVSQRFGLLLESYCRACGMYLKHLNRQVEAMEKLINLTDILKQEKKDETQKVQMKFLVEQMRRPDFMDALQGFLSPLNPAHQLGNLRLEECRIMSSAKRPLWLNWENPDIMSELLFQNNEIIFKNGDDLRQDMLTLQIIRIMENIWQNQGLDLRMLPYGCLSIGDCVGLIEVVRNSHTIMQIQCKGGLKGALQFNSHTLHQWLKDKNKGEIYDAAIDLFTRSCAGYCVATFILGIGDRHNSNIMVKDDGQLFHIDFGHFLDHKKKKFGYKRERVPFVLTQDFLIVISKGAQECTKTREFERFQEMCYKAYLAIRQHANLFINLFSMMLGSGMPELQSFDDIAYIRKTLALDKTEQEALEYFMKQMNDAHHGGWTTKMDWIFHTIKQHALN

Structure (SMILES) | IC50 (PIK3CG (human) [1]) [nM] | IC50 (PIK3CG (human) [2]) [nM] | IC50 (PIK3CD (Human)) [nM] | IC50 (PIK3CA (human)) [nM] | IC50 (PIK3CB (Human)) [nM]
Cc1cc(-c2cncc(-c3cc(S(=O)(=O)NC[C@H]4C[C@@H](O)C4)ccc3C)n2)n(C)n1 | 122 | 38 | 40 | 100 | 1900
Cc1ccc(S(=O)(=O)NC[C@H]2C[C@@H](O)C2)cc1-c1cncc(-c2cn(C)nc2C)n1 | 61 | 11 | 100 | 90 | 630
Cc1ccc(S(=O)(=O)N[C@H]2CC[C@H](O)CC2)cc1-c1cncc(-c2csc(CN3CCOCC3)c2)n1 | 122 | 6 | 10 | 160 | > 9100
Cc1ccc(S(=O)(=O)NC2CC3(CC(O)C3)C2)cc1-c1cncc(-c2cn(C)nc2C)n1 (stereo not given) | 22 | 13 | 90 | 40 | 450
